Laboratory results from patent US20060122387A1, “Derivatives of chromen-2-one as inhibitors of vegf production in mammalian cells” (CTI Europe S.r.l., priority 2002, published 2006).

Tested on: VEGF promoter (luciferase reporter) in Hep3B cells
Test: Cell-based assay of VEGF gene transcription (VEGF-Luciferase assay)
Settings: Hep3B cells stably expressing VEGF-luciferase construct; 100 μM desferoxamine, 18 hours; read-out: IC50 (concentration of compound required to cause a 50% reduction of the luciferase signal)
Procedure: Cell-Based Assay of VEGF Gene Transcription (VEGF-Luciferase Assay).
The activity of compounds is determined by a cell-based reporter assay which uses the hepatoma 3B (Hep3B) cell line.
This assay involves the use of a luciferase reporter gene under the direct control of the VEGF promoter. Induction of the hypoxic response using desferoxamine leads to the transcription of luciferase through activation of the VEGF promoter, which in turn leads to an increase in luciferse activity, which can be measured using most of commercially available luciferase assay kits. Molecules which inhibit the activation of the VEGF promoter can thus be detected.
This assay can be run using a Hep3B cell line which stably expresses the VEGF-luciferase construct.
Hep3B cells (ATCC Ref. No. HB-8064) are plated in 6-well plates at 2.5×10^5 cells/well in 2 mL DMEM/10% FCS and are transfected the following day using Fugene 6 (Roche Biochemicals®). Transfection mixtures per well contain 6 μL Fugene 6 transfection reagent, 1 μg of pxp2-VEGF-luciferase reporter (rat VEGF promoter, NCBI GenBank accession no. U22373, Levy et al., 1995), plus pcDNA3.1(+) Neomycin resistance vector (INVITROGEN). […]
Luciferase activity is measured using the Bright Glo Luciferase Assay System (Promega®, see also technical Manual, Part #TM052, Instructions for Use of Products E2620 and E2650, revised 10/00). […]

IC50: < 10 µM
SMILES: CCN(CC)c1ccc2cc(-c3nc(-c4ccccc4)cs3)c(=O)oc2c1 [Example 8]
